{"source": "patent US20230031406A1", "about": "“COMPOUNDS AND COMPOSITIONS FOR TREATING CONDITIONS ASSOCIATED WITH NLRP ACTIVITY” (Novartis AG, priority 2018, published 2023)", "system": "PMA-differentiated THP-1 cells", "assay": "hTHP-1 assay containing 10% fetal bovine serum (IL-1β production, Tables B5 and B6)", "format": "cell-based, human", "method": "The following protocol is suitable for testing the activity of the compounds disclosed herein. Procedure 1: IL-1β Production in PMA-Differentiated THP-1 Cells Stimulated with Gramicidin.\nTHP-1 cells were purchased from the American Type Culture Collection and sub-cultured according to instructions from the supplier. Cells were cultured in complete RPMI 1640 (containing 10% heat inactivated FBS, penicillin (100 units/ml) and streptomycin (100 μg/ml)), and maintained in log phase prior to experimental setup. Prior to the experiment, compounds were dissolved in dimethyl sulfoxide (DMSO) to generate a 30 mM stock. The compound stock was first pre-diluted in DMSO to 3, 0.34, 0.042 and 0.0083 mM intermediate concentrations and subsequently spotted using Echo550 liquid handler into an empty 384-well assay plate to achieve desired final concentration (e.g. 100, 33, 11, 3.7, 1.2, 0.41, 0.14, 0.046, 0.015, 0.0051, 0.0017 μM). DMSO was backfilled in the plate to achieve a final DMSO assay concentration of 0.37%. The plate was then sealed and stored at room temperature until required.\nTHP-1 cells were treated with PMA (Phorbol 12-myristate 13-acetate) (20 ng/ml) for 16-18 hours. On the day of the experiment the media was removed and adherent cells were detached with trypsin for 5 minutes. […] The cells were plated in the 384-well assay plate containing the spotted compounds at a density of 50,000 cells/well (final assay volume 50 μl). Cells were incubated with compounds for 1 hour and then stimulated with gramicidin (5 μM) (Enzo) for 2 hours. Plates were then centrifuged at 340 g for 5 min. Cell free supernatant (40 μL) was collected using a 96—CHannel PlateMaster (Gilson) and the production of IL-1β was evaluated by HTRF (cisbio). The plates were incubated for 18 h at 4° C. and read using the preset HTRF program (donor emission at 620 nm, acceptor emission at 668 nm) of the SpectraMax i3x spectrophotometer (Molecular Devices, software SoftMax 6). A vehicle only control and a dose titration of CRID3 (100-0.0017 μM) were run concurrently with each experiment.\nProcedure 2: IL-1β Production in PMA-Differentiated THP-1 Cells Stimulated with Gramicidin.\nTHP-1 cells were purchased from the American Type Culture Collection and sub-cultured according to instructions from the supplier. Prior to experiments, cells were cultured in complete RPMI 1640 (containing 10% heat inactivated FBS, penicillin (100 units/ml) and streptomycin (100 μg/ml)), and maintained in log phase prior to experimental setup. Prior to the experiment THP-1 were treated with PMA (Phorbol 12-myristate 13-acetate) (20 ng/ml) for 16-18 hours. Compounds were dissolved in dimethyl sulfoxide (DMSO) to generate a 30mM stock. On the day of the experiment the media was removed and adherent cells were detached with trypsin for 5 minutes. […] The cells were plated in a 384-well plate at a density of 50,000 cells/well (final assay volume […]). Compounds were first dissolved in assay medium to obtain a 5× top concentration of 500 μM. 10 step dilutions (1:3) were then undertaken in assay medium containing 1.67% DMSO. 5× compound solutions were added to the culture medium to achieve desired final concentration (e.g. 100, 33, 11, 3.7, 1.2, 0.41, 0.14, 0.046, 0.015, 0.0051, 0.0017 μM). Final DMSO concentration was at 0.37%. Cells were incubated with compounds for 1 hour and then stimulated with gramicidin (5 μM) (Enzo) for 2 hours. Plates were then centrifuged at 340 g for 5 min. Cell free supernatant (40 μL) was collected using a 96—CHannel PlateMaster (Gilson) and the production of IL-1β was evaluated by HTRF (cisbio). A vehicle only control and a dose titration of CRID3 (100-0.0017 μM) were run concurrently with each experiment.\nTables B1, B2, B3, and B4 show the biological activity of compounds in hTHP-1 assay containing 2% fetal bovine serum. […] Key: <0.008 μM=“++++++”; ≥0.008 and <0.04 μM=“+++++”; >0.04 and <0.2 μM=“++++”; ≥0.2 and <1 μM=“+++”; ≥1 and <5 μM=“++”; ≥5 and <30 μM=“+”. […]", "key": {"[1]": {"conditions": "Homo sapiens, THP-1, read-out: hTHP-1 IC50 in 10% FBS, hTHP-1 assay containing 10% fetal bovine serum, Table B5"}, "[2]": {"conditions": "Homo sapiens, THP-1, read-out: hTHP-1 IC50 in 10% FBS, hTHP-1 assay containing 10% fetal bovine serum, Table B6"}}, "note": "Where two headings read alike, the source gives them in different places.", "data": [{"compound": "Cc1c(C(F)(F)F)nc2c(c1NC(=O)N=S(N)(=O)c1nn(C3CC3)cc1F)CCC2", "note": "(single isomer, unassigned) [Example 870, (S) or (R)-1-cyclopropyl-4-fluoro-N′-((3-methyl-2-(trifluoromethyl)-6,7-dihydro-5H-cyclopenta[b]pyridin-4-yl)carbamoyl)-1H-pyrazole-3-sulfonimidamide]", "values": [{"measurement": "IC50", "setting": "read-out: hTHP-1 IC50 in 10% FBS, hTHP-1 assay containing 10% fetal bovine serum, Table B6", "result": "1000 to 5000", "unit": "nM"}]}, {"compound": "CCn1cc(F)c(S(N)(=O)=NC(=O)Nc2c3c(nc(C)c2C(F)(F)F)CCC3)n1", "note": "(stereo not shown) [Compound 1012, 1-Ethyl-4-fluoro-N′-((2-methyl-3-(trifluoromethyl)-6,7-dihydro-5H-cyclopenta[b]pyridin-4-yl)carbamoyl)-1H-pyrazole-3-sulfonimidamide]", "values": [{"measurement": "IC50", "setting": "[1]", "result": "40 to 200", "unit": "nM"}]}, {"compound": "NS(=O)(=NC(=O)Nc1c2c(nc3c1CCC31CC1)CCC2)c1nn(C2CC2)cc1F", "note": "(stereo not shown) [Example 857, 1-Cyclopropyl-4-fluoro-N′-((1′,5′,6′,7′-tetrahydro-2′H-spiro[cyclopropane-1,3′-dicyclopenta[b,e]pyridin]-8′-yl)carbamoyl)-1H-pyrazole-3-sulfonimidamide]", "values": [{"measurement": "IC50", "setting": "[2]", "result": "40 to 200", "unit": "nM"}]}, {"compound": "CCn1cc(F)c(S(N)(=O)=NC(=O)Nc2c3c(nc(C(F)(F)F)c2-c2ccc(F)c(F)c2)CCC3)n1", "note": "(single isomer, unassigned) [Compound 1113a, (S) or (R)-N′-((3-(3,4-difluorophenyl)-2-(trifluoromethyl)-6,7-dihydro-5H-cyclopenta[b]pyridin-4-yl)carbamoyl)-1-ethyl-4-fluoro-1H-pyrazole-3-sulfonimidamide]", "values": [{"measurement": "IC50", "setting": "read-out: hTHP-1 IC50 in 10% FBS, hTHP-1 assay containing 10% fetal bovine serum, Table B5, listed as 836", "result": "200 to 1000", "unit": "nM"}]}, {"compound": "CC(F)(F)n1cc(F)c(S(N)(=O)=NC(=O)Nc2c3c(nc4c2CCC4)CCC3)n1", "note": "(single isomer, unassigned) [Compound 1115b, (S) or (R)-1-(1,1-difluoroethyl)-4-fluoro-N′-((1,2,3,5,6,7-hexa-hydrodicyclopenta[b,e]pyridin-8-yl)carbamoyl)-1H-pyrazole-3-sulfonimidamide]", "values": [{"measurement": "IC50", "setting": "read-out: hTHP-1 IC50 in 10% FBS, hTHP-1 assay containing 10% fetal bovine serum, Table B5, listed as 847", "result": "5000 to 30000", "unit": "nM"}]}, {"compound": "CC(C)(O)c1csc(S(N)(=O)=NC(=O)Nc2c3c(nc(C4CC4)c2C2CC2)CCC3)c1F", "note": "(single isomer, unassigned) [Compound 1106b, (S) or (R)-N′-((2,3-dicyclopropyl-6,7-dihydro-5H-cyclopenta[b]pyridin-4-yl)carbamoyl)-3-fluoro-4-(2-hydroxypropan-2-yl)thiophene-2-sulfonimidamide]", "values": [{"measurement": "IC50", "setting": "read-out: hTHP-1 IC50 in 10% FBS, hTHP-1 assay containing 10% fetal bovine serum, Table B5, listed as 831", "result": "1000 to 5000", "unit": "nM"}]}, {"compound": "Cc1c(C(F)(F)F)nc2c(c1NC(=O)N=S(N)(=O)c1nn(C(C)(F)F)cc1F)CCC2", "note": "(stereo not shown) [Compound 1004, 1-(1,1-Difluoroethyl)-4-fluoro-N′-((3-methyl-2-(trifluoromethyl)-6,7-dihydro-5H-cyclopenta [b]pyridin-4-yl)carbamoyl)-1H-pyrazole-3-sulfonimidamide]", "values": [{"measurement": "IC50", "setting": "[1]", "result": "200 to 1000", "unit": "nM"}]}, {"compound": "CC(F)(F)n1cc(F)c(S(N)(=O)=NC(=O)Nc2c3c(nc4c2CCC4)CCC3)n1", "note": "(single isomer, unassigned) [Compound 1115a, (R) or (S)-1-(1,1-difluoroethyl)-4-fluoro-N′-((l,2,3,5,6,7-hexa-hydrodicyclopenta[b,e]pyridin-8-yl)carbamoyl)-1H-pyrazole-3-sulfonimidamide]", "values": [{"measurement": "IC50", "setting": "read-out: hTHP-1 IC50 in 10% FBS, hTHP-1 assay containing 10% fetal bovine serum, Table B5, listed as 846", "result": "200 to 1000", "unit": "nM"}]}, {"compound": "CCn1cc(F)c(S(N)(=O)=NC(=O)Nc2c(C)c(C(F)(F)F)nc3c2CC(C)C3)n1", "note": "(single isomer, unassigned) [Compound 1101e, (R, S) or (R, R)-N′-((3,6-dimethyl-2-(trifluoromethyl)-6,7-dihydro-5H-cyclopenta[b]pyridin-4-yl)carbamoyl)-1-ethyl-4-fluoro-1H-pyrazole-3-sulfonimidamide]", "values": [{"measurement": "IC50", "setting": "read-out: hTHP-1 IC50 in 10% FBS, hTHP-1 assay containing 10% fetal bovine serum, Table B5, listed as 825", "result": "8 to 40", "unit": "nM"}]}, {"compound": "C[C@@H]1CCc2c1nc1c(c2NC(=O)N=S(N)(=O)c2scc(C(C)(C)O)c2F)CCC1", "note": "(single isomer, unassigned) [Compound 1109a, (R) or (S)-3-fluoro-4-(2-hydroxypropan-2-yl)-N′-(((R)-3-methyl-1,2,3,5,6,7-hexahydrodicyclopenta [b,e]pyridin-8-yl)carbamoyl) thiophene-2-sulfonimidamide]", "values": [{"measurement": "IC50", "setting": "read-out: hTHP-1 IC50 in 10% FBS, hTHP-1 assay containing 10% fetal bovine serum, Table B5, listed as 842", "result": "8 to 40", "unit": "nM"}]}, {"compound": "Cc1c(C(F)(F)F)nc2c(c1NC(=O)N=S(N)(=O)c1scc(C(C)(C)O)c1F)CCC2", "note": "(stereo not shown) [Compound 1108, 3-Fluoro-4-(2-hydroxy-propan-2-yl)-N′-((3-methyl-2-(trifluoromethyl)-6,7-dihydro-5H-cyclopenta[b]pyridin-4-yl)carbamoyl)thiophene-2-sulfonimidamide]", "values": [{"measurement": "IC50", "setting": "[1]", "result": "40 to 200", "unit": "nM"}]}, {"compound": "C[C@@H]1CCc2c1nc1c(c2NC(=O)N=S(N)(=O)c2scc(C(C)(C)O)c2F)CCC1", "note": "(stereo partly drawn) [Compound 1109, 3-Fluoro-4-(2-hydroxy-propan-2-yl)-N′-(((R)-3-methyl-1,2,3,5,6,7-hexahydrodicyclopenta [b,e]pyridin-8-yl)-carbamoyl)thiophene-2-sulfonimidamide]", "values": [{"measurement": "IC50", "setting": "[1]", "result": "8 to 40", "unit": "nM"}]}, {"compound": "Cc1nc2c(c(NC(=O)N=S(N)(=O)c3scc(C(C)(C)O)c3F)c1-c1ccccc1)CCC2", "note": "(stereo not shown) [Compound 1110, 3-Fluoro-4-(2-hydroxy-propan-2-yl)-N′-((2-methyl-3-phenyl-6,7-dihydro-5H-cyclopenta [b]pyridin-4-yl)carbamoyl)thiophene-2-sulfonimidamide]", "values": [{"measurement": "IC50", "setting": "[1]", "result": "40 to 200", "unit": "nM"}]}, {"compound": "CCn1cc(F)c(S(N)(=O)=NC(=O)Nc2c3c(nc(C(F)(F)F)c2-c2ccc(F)c(F)c2)CCC3)n1", "note": "(single isomer, unassigned) [Compound 1113b, (R) or (S)-N′-((3-(3,4-difluorophenyl)-2-(trifluoromethyl)-6,7-dihydro-5H-cyclopenta[b]pyridin-4-yl)carbamoyl)-1-ethyl-4-fluoro-1H-pyrazole-3-sulfonimidamide]", "values": [{"measurement": "IC50", "setting": "read-out: hTHP-1 IC50 in 10% FBS, hTHP-1 assay containing 10% fetal bovine serum, Table B5, listed as 837", "result": "8 to 40", "unit": "nM"}]}, {"compound": "CCn1cc(F)c(S(N)(=O)=NC(=O)Nc2c3c(nc(C(F)(F)F)c2C(F)(F)F)CCC3)n1", "note": "(stereo not shown) [Example 856, N′-((2,3-bis(trifluoromethyl)-6,7-dihydro-5H-cyclopenta[b]pyridin-4-yl)carbamoyl)-1-ethyl-4-fluoro-1H-pyrazole-3-sulfonimidamide]", "values": [{"measurement": "IC50", "setting": "[2]", "result": "40 to 200", "unit": "nM"}]}, {"compound": "Cc1c(C(F)(F)F)nc2c(c1NC(=O)N=S(N)(=O)c1scc(C(C)(C)O)c1F)CCC2", "note": "(single isomer, unassigned) [Compound 1108a, (R) or (S)-3-fluoro-4-(2-hydroxypropan-2-yl)-N′-((3-methyl-2-(trifluoromethyl)-6,7-dihydro-5H-cyclopenta[b]pyridin-4-yl)carbamoyl)thiophene-2-sulfonimidamide]", "values": [{"measurement": "IC50", "setting": "read-out: hTHP-1 IC50 in 10% FBS, hTHP-1 assay containing 10% fetal bovine serum, Table B5, listed as 840", "result": "40 to 200", "unit": "nM"}]}]}
